From the supplement of paper PMC10307832

Legend:
Test in all cases: relative viability (nuclei count vs DMSO), 5 days (fraction); higher = more cells survive
[1] = compound: C1=CC2=NC=CN=C2C=C1/C=C/3\C(=O)NC(=O)S3 + COc1cccc2cc(-c3nc([C@H]4CC[C@H](C(=O)O)CC4)n4ncnc(N)c34)[nH]c12 [OSI-027] (partner 0.5 µM)
Outline: (§1)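 Five library-drug doses in √10 steps were combined with a fixed anchor-drug dose, or a single drug was given alone, by pin tool to lung cancer cell lines in 1536-well plates the day after seeding. Nuclei were stained and counted after 5 days. Relative viability is the nuclei count in treated wells over that in vehicle wells, taken as the median of duplicate plates.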

BGJ398 + Luminespib = compound: CCN1CCN(c2ccc(Nc3cc(N(C)C(=O)Nc4c(Cl)c(OC)cc(OC)c4Cl)ncn3)cc2)CC1 [BGJ398] + CCNC(=O)c1noc(-c2cc(C(C)C)c(O)cc2O)c1-c1ccc(CN2CCOCC2)cc1 [Luminespib] (partner 0.01 µM)
Outline: as §1

BGJ398 + Lapatinib = compound: CCN1CCN(c2ccc(Nc3cc(N(C)C(=O)Nc4c(Cl)c(OC)cc(OC)c4Cl)ncn3)cc2)CC1 [BGJ398] + CS(=O)(=O)CCNCc1ccc(-c2ccc3ncnc(Nc4ccc(OCc5cccc(F)c5)c(Cl)c4)c3c2)o1 [Lapatinib] (partner 2 µM)
Outline: as §1

BGJ398 + AZD7762 = compound: CCN1CCN(c2ccc(Nc3cc(N(C)C(=O)Nc4c(Cl)c(OC)cc(OC)c4Cl)ncn3)cc2)CC1 [BGJ398] + NC(=O)Nc1cc(-c2cccc(F)c2)sc1C(=O)N[C@H]1CCCNC1 [AZD7762] (partner 0.2 µM)
Outline: as §1

| Cell Line | relative viability ([1]; first compound 0.02 µM) | relative viability ([1]; first compound 0.06325 µM) | relative viability ([1]; first compound 0.2 µM) | relative viability ([1]; first compound 0.6325 µM) | relative viability ([1]; first compound 2 µM) | relative viability (BGJ398 + Luminespib; first compound 0.01 µM) | relative viability (BGJ398 + Luminespib; first compound 0.03162 µM) | relative viability (BGJ398 + Luminespib; first compound 0.1 µM) | relative viability (BGJ398 + Luminespib; first compound 0.3162 µM) | relative viability (BGJ398 + Luminespib; first compound 1 µM) | relative viability (BGJ398 + Lapatinib; first compound 0.01 µM) | relative viability (BGJ398 + Lapatinib; first compound 0.03162 µM) | relative viability (BGJ398 + Lapatinib; first compound 0.1 µM) | relative viability (BGJ398 + Lapatinib; first compound 0.3162 µM) | relative viability (BGJ398 + Lapatinib; first compound 1 µM) | relative viability (BGJ398 + AZD7762; first compound 0.01 µM) | relative viability (BGJ398 + AZD7762; first compound 0.03162 µM) | relative viability (BGJ398 + AZD7762; first compound 0.1 µM) | relative viability (BGJ398 + AZD7762; first compound 0.3162 µM) | relative viability (BGJ398 + AZD7762; first compound 1 µM) |
| --- | --- | --- | --- | --- | --- | --- | --- | --- | --- | --- | --- | --- | --- | --- | --- | --- | --- | --- | --- | --- |
| NCI-H838 | 0.448 | 0.437 | 0.438 | 0.399 | 0.226 | 0.299 | 0.302 | 0.272 | 0.253 | 0.234 | 0.755 | 0.867 | 0.914 | 0.623 | 0.413 | 0.861 | 0.915 | 1.04 | 0.782 | 0.756 |
| NCI-H1355 | 0.383 | 0.338 | 0.402 | 0.396 | 0.258 | 0.683 | 0.705 | 0.793 | 0.735 | 0.696 | 0.936 | 1.05 | 1.01 | 0.95 | 0.644 | 0.697 | 0.818 | 0.748 | 0.677 | 0.713 |
| NCI-H1395 | 0.667 | 0.64 | 0.738 | 0.588 | 0.583 | 0.63 | 0.661 | 0.665 | 0.557 | 0.415 | 1.1 | 1.75 | 0.823 | 0.569 | 0.476 | 0.372 | 0.366 | 0.355 | 0.352 | 0.352 |
| NCI-H1437 | 0.941 | 0.995 | 0.922 | 0.784 | 0.197 | 1.18 | 1.19 | 1.05 | 1.12 | 1.11 | 0.829 | 0.762 | 0.905 | 0.729 | 0.644 | 1.13 | 1.23 | 1.14 | 1.17 | 1.19 |
| NCI-H1651 | 0.711 | 0.723 | 0.794 | 0.658 | 0.527 | 0.989 | 0.811 | 0.9 | 0.949 | 0.773 | 0.796 | 0.897 | 0.962 | 0.693 | 0.676 | 0.465 | 0.442 | 0.478 | 0.374 | 0.471 |
| NCI-H1666 | 0.873 | 0.825 | 0.84 | 0.812 | 0.459 | 1 | 0.998 | 0.99 | 1.04 | 0.988 | 0.656 | 0.704 | 0.508 | 0.7 | 0.255 | 0.95 | 0.784 | 0.866 | 0.703 | 0.728 |
| NCI-H1734 | 0.697 | 0.487 | 0.665 | 0.522 | 0.324 | 0.178 | 0.179 | 0.22 | 0.171 | 0.17 | 0.992 | 1.03 | 1.11 | 0.961 | 1.06 | 0.504 | 0.56 | 0.538 | 0.554 | 0.624 |
| NCI-H1755 | 0.712 | 0.838 | 0.71 | 0.699 | 0.575 | 0.498 | 0.363 | 0.339 | 0.606 | 0.417 | 1.01 | 1.04 | 1.05 | 1.01 | 1.01 | 0.487 | 0.496 | 0.384 | 0.339 | 0.399 |
| NCI-H1792 | 0.722 | 0.65 | 0.728 | 0.666 | 0.294 | 0.406 | 0.542 | 0.344 | 0.401 | 0.277 | 0.928 | 0.874 | 0.999 | 0.909 | 0.756 | 0.678 | 0.595 | 0.784 | 0.646 | 0.718 |
| NCI-H1793 | 0.28 | 0.201 | 0.289 | 0.265 | 0.203 | 0.167 | 0.229 | 0.175 | 0.163 | 0.196 | 0.652 | – | 0.564 | 0.402 | 0.427 | 0.466 | 0.406 | 0.473 | 0.434 | 0.419 |
| NCI-H1915 | 0.679 | 0.71 | 0.727 | 0.674 | 0.603 | 0.675 | 0.826 | 0.852 | 0.688 | 0.784 | 0.976 | 0.977 | 0.988 | 1.01 | 0.928 | 0.696 | 0.665 | 0.691 | 0.576 | 0.724 |
| NCI-H1944 | 0.412 | 0.395 | 0.427 | 0.385 | 0.258 | 0.687 | 0.714 | 0.787 | 0.722 | 0.716 | 0.784 | 0.813 | 0.84 | 0.78 | 0.603 | 0.561 | 0.536 | 0.484 | 0.439 | 0.516 |
| NCI-H1975 | 0.708 | 0.805 | 0.808 | 0.619 | 0.417 | 0.218 | 0.179 | 0.204 | 0.237 | 0.261 | 0.915 | 0.903 | 0.859 | 0.899 | 0.785 | 0.767 | 0.711 | 0.78 | 0.666 | 0.606 |
